Assay results from US7294509B2, “Pre-adipose cell lines” (Nestec S.A., priority 2000, dated 2007).

Experiments:
Assay type in all cases: cell-based, human
Chub-S7 cells [1] = test: Adipocyte marker gene expression by real-time RT-PCR during Chub-S7 cell differentiation; conditions: for LPL mRNA fold-increase / aP2 mRNA fold-increase: day 17 as compared to day 0, 1 μM Dex alone or with 1 μM BRL49653 from day 3
Protocol: Adipocyte differentiation of Chub-S7 cells was tested under serum-free culture conditions. To promote pre-adipocyte differentiation, confluent cells were incubated with a basal medium (see Material and Methods) supplemented with 500 μM IBMX and 1 μM Dex for the first 3 days, and 1 μM of a PPARγ agonist (BRL49653) and 1 μM Dex from day 3 to 17. This condition was compared to the basal medium alone or supplemented with Dex plus IBMX from day 0 to 3 and Dex alone from day 3 to 17. To determine whether Chub-S7 cells were able to differentiate, the expression of adipocyte markers was assessed, by real-time RT-PCR, at different time points during cellular maturation. These markers included i) transcriptional factors involved in adipogenesis such as peroxisome proliferator-activated receptor γ (PPARγ) and CAAT/enhancer binding protein α (C/EBPα), ii) genes involved in lipid metabolism such as lipoprotein lipase (LPL) and adipocyte fatty acid binding protein (aP2), and finally iii) adipocyte secreted factors such as adipsin and leptin.
Chub-S7 cells were cultured from day 0 to 17 in the presence of the basal medium as defined in Material and Methods (m), or in the basal medium with 1 μM Dex plus 500 μM IBMX from day 0 to 3 and dexamethasone from day 3 to 17 (●) or supplemented with 1 μM BRL49653 (▪). The arrow indicates the day from which BRL49653 was added to the medium. Relative gene expression was quantified by real-time RT-PCR. Data are the means±SEM of values obtained at least in four separate experiments. […] Top panels show representative RT-PCRs performed at a number of cycle defined according to the linear amplification of the genes (see Material and Methods).
Cells were grown in a mixture of DMEM/F12 media supplemented with 10% FBS, 2 mM glutamine, 100 U/ml penicillin/streptamycin until confluency. For differentiation, cells were washed with PBS and cultured with a serum-free medium consisting of a mixture of DMEM/F12 media supplemented with 15 mM NaHCO3, 17 μM D-panthotenic acid, 15 mM Hepes, 33 μM biotin, 10 μg/ml transferrin, 1 nM triiodothyronin, 850 nM insulin and 500 μg/ml fetuin. This medium, referred to “basal medium” was supplemented with 1 μM dexamethasone (Dex) and 500 μM IBMX from day 0 to 3. Dex was maintained alone or with 1 μM BRL49653 from day 3 to 17 in order to promote differentiation. As stated in Results, oleic acid (OA) complexed with bovine serum albumin (BSA; ratio OA-to-BSA: 5: 1) was added to the medium containing BRL49653 from day 10 to 17. Lipid accumulation in differentiated cells was visualized by Oil red O staining as previously described (22). All the experiments on Chub-S7 cell characterization were performed between passages 18 and 32 (69 to 122 population doublings).
RNAs from Chub-S7 cells cultured from day 0 to 17 were extracted using the NucleoSpin® Total RNA Purification System (Macherey-Nagel, Oensingen Switzerland). Reverse transcription was performed with an input of 10 μg of total RNA using the 1st strand cDNA synthesis kit for RT-PCR (AMV; Roche Biomedical, Basel, Switzerland) with oligo d(T)15 as primer. Real-time reverse transcription-polymerase chain reaction analyses were performed in a fluorescent temperature cycler (GeneAmp® PCR 5700 Sequence Detection System; Applied Biosystem) according to the recommendations of the manufacturer. Briefly, after initial denaturation at 50° C. for 2 min and 95° C. for 10 min, reactions were cycled 40 times using the following parameters for all genes studied: 95° C. for 15s, primer annealing and extension at 60° C. for 1 min. SYBR Green I fluorescence was detected at the end of each cycle to monitor the amount of PCR product formed during that cycle. Primers used for the amplification of cDNAs of interest were synthesized by Mycrosynth (Windisch, Switzerland).
Cycle to cycle fluorescence emission was monitored and quantified using the GenAmp software provided by Applied Biosystem. […]

Chub-S7 cells [2] = test: Triglyceride accumulation in differentiated Chub-S7 cells (Oil red O staining); conditions: 100 μM OA complexed with BSA, day 10 to 17, in differentiation medium containing BRL49653
Protocol: To study the ability of differentiated Chub-S7 cells to accumulate intracellular lipids, cells cultured for 17 days in the absence or in the presence of BRL49653 were fixed and stained with Oil-red O. Almost all the differentiated cells were able to accumulate at least one single lipid droplet and few of them presented large multilocular droplets (FIG. 10B).
Chub-S7 cells were grown in the presence of the basal medium with 1 μM dexamethasone plus 500 μM IBMX from day 0 to 3 and Dex from day 3 to 17 or supplemented with 1 μM BRL49653 alone or in the presence of 100 μM OA from day 10 to 17. At day 17, cells were fixed and triglycerides were visualized using the oil-red O staining. A: Staining of culture wells containing Chub-S7 cells differentiated under the conditions described above. B: Morphology of Chub-S7 cells differentiated with dexamethasone and BRL49653 or in the same medium supplemented with oleate (Magnitude 400×). Data are representative of at least 3 independent experiments.
Cells were grown in a mixture of DMEM/F12 media supplemented with 10% FBS, 2 mM glutamine, 100 U/ml penicillin/streptamycin until confluency. […]

Chub-S7 cells [3] = test: Lipolysis (glycerol release) in differentiated Chub-S7 cells; conditions: 1 μM isoproterenol, 1 h; day 17; cells differentiated with BRL49653
Protocol: Lipolytic capacity of differentiated cells was assessed by measuring glycerol release, after stimulation or not for 1 h with 1 μM isoproterenol (Iso), a non-specific β-adrenergic agonist. Cells were differentiated in the presence of BRL49653 alone.
A. Chub-S7 cells were differentiated in the presence of 1 μM Dex plus 500 μM IBMX from day 0 to 3 and dexamethasone plus 1 μM BRL49653 from day 3 to 17. Glycerol released in the medium was measured in the presence or in the absence of 1 μM isoproterenol. Data are the means of values obtained at least in four separate experiments. […] B. Chub-S7 cells were cultured from day 0 to 17 in the presence of the basal medium (m), or in the basal medium with 1 μM Dex plus 500 μM IBMX from day 0 to 3 and Dex from day3 to 17 (●) or supplemented with 1 μM BRL49653 (▪). Data are the means±SEM of values obtained at least in four separate experiments.
(iv) Glycerol-3-phosphate dehydrogenase activity and lipolysis measurements Glycerol-3-phosphate dehydrogenase (GPDH) activity measured at different times during the differentiation process of Chub-S7 cells was determined using the enzymatic assay previously described (23). Lipolysis was determined at day 17 after confluency. […] Glycerol released in the medium was measured using the glycerokinase enzymatic radiometric assay described by Bradley and Kaslow (24).

| Compound | LPL mRNA fold-increase (Chub-S7 cells [1]) | aP2 mRNA fold-increase (Chub-S7 cells [1]) | further results |
| --- | --- | --- | --- |
| CN(CCOc1ccc(CC2SC(=O)NC2=O)cc1)c1ccccn1 (centres unmarked) [BRL49653] | 308 fold-increase | 8372 fold-increase | leptin mRNA, higher in presence of BRL49653 compared to Dex alone (Chub-S7 cells [1]; day 17, 1 μM BRL49653): 2 fold |
| CCCCCCCC/C=C\CCCCCCCC(=O)O [OA, oleic acid] |  |  | triglyceride content (Chub-S7 cells [2]): dramatic increase; expression of LPL, C/EBPα, aP2, leptin and adipsin induced by BRL49653 (Chub-S7 cells [1]; 100 μM OA day 10 to 17, data not shown): did not affect |
| CC(C)NCC(O)c1ccc(O)c(O)c1 (centres unmarked) [Iso, isoproterenol] |  |  | increase in lipolysis (glycerol release) (Chub-S7 cells [3]): 40.5% |
| C[C@@H]1C[C@H]2[C@@H]3CCC4=CC(=O)C=C[C@]4(C)[C@@]3(F)[C@@H](O)C[C@]2(C)[C@@]1(O)C(=O)CO [Dex, Dexamethasone] | 16 fold-increase | 8 fold-increase |  |
